Data on 7 compounds can be found in US9604964B2, “Dihydropyrazole GPR40 modulators” (BRISTOL-MYERS SQUIBB COMPANY, priority 2012, dated 2017).

For assay [1], the target named is T1, human GPR40 (Homo sapiens, UniProt O14842). The assay can be described thus: GPR40 IP-One HTRF assay in HEK293/GPR40 inducible cell lines. It is filed as cell-based. The following applies: HEK293 cells, tetracycline-inducible human GPR40, IP-One HTRF; read-out: hGPR40 IP1 EC50. Also noted: expressed in transfected cells. Here is the method: GPR40 IP-One HTRF Assays in HEK293/GPR40 Inducible Cell Lines
Human, mouse and rat GPR40-mediated intracellular IP-One HTRF assays were established using human embryonic kidney HEK293 cells stably transfected with a tetracycline-inducible human, mouse or rat GPR40 receptor. Cells were routinely cultured in growth medium containing DMEM (Gibco Cat. #:12430-047), 10% qualified FBS (Sigma, Cat. #: F2442), 200 μg/mL hygromycin (Invitrogen, Cat. #: 16087-010) and 1.5 μg/mL blasticidin (Invitrogen, Cat. # R210-01). About 12-15 million cells were passed into a T175 tissue culture flask (BD Falcon 353112) with growth medium and incubated for 16-18 hours (overnight) at 370 C with 5% CO2. The next day, assay medium was exchanged with growth medium containing 1000 ng/mL of tetracycline (Fluka Analytical, Cat. #87128) to induce GPR40 expression for 18-24 hours at […] incubator with 5% CO2. After induction, the cells were washed with PBS (Gibco, Cat. #14190-036) and detached with Cell Stripper (Cellgro, Cat. #25-056-CL). 10-20 mL growth medium were added to the flask and cells were collected in 50 mL tubes (Falcon, Cat.#:352098) and spun at 1000 RPM for 5 minutes. Culture medium was aspirated and the cells were resuspended in 10 mL of 1×IP-One Stimulation Buffer from the Cisbio IP-One kit (Cisbio, Cat. #62IPAPEJ). The cells were diluted to 1.4×10^6 cells/mL in Stimulation Buffer.
Test compounds were 3-fold, 11-point serially diluted in DMSO in a REMP assay plate (Matrix Cat. #: 4307) by BioCel (Agilent). The compounds were transferred into an Echo plate (LABCYTE, Cat. #: LP-0200) and 20 nL of diluted compounds were transferred to an assay plate (proxi-plate from Perkin Elmer, Cat. #6008289) by Echo acoustic nano dispenser (LABCYTE, model ECHO550). 14 μL of the diluted cells were then added to the assay plate by Thermo (SN 836 330) Combi Drop and incubated at room temperature for 45 minutes. Then 3 μL of IP1 coupled to dye D2 from the Cisbio IP-One kit were added to the assay plate followed by 3 μL of Lumi4TM-Tb cryptate K from the kit. The plate was further incubated at room for 1 hour before reading on the Envision (Perkin Elmer Model2101) with an HTRF protocol. Activation data for the test compound over a range of concentrations was plotted as percentage activation of the test compound (100%=maximum response). After correcting for background [(sample read-mean of low control)/(mean of high control−mean of low control)] (low control is DMSO without any compound), EC50 values were determined. The EC50 is defined as the concentration of test compound which produces 50% of the maximal response and was quantified using the 4 parameter logistic equation to fit the data.

For assay [2], the target named is T1, human GPR40. The assay can be described thus: FDSS-based intracellular calcium assay (Human GPR40 in vitro assay). The arrangement: 3xFLAG; expressed in transfected cells. The following applies: intracellular Ca2+ response, cells expressing GPR40; read-out: hGPR40 EC50. It is filed as cell-based. The method, then: FDSS-based Intracellular Calcium Assay
Compounds are dissolved in DMSO and diluted to desired concentrations with assay buffer and added to the cells as 3× solution (20 μL per well). Run fluorescence/luminescence reader FDSS (Hamamatsu) to read intracellular Ca^2+ response.

T1 sequence (O14842 whole entry): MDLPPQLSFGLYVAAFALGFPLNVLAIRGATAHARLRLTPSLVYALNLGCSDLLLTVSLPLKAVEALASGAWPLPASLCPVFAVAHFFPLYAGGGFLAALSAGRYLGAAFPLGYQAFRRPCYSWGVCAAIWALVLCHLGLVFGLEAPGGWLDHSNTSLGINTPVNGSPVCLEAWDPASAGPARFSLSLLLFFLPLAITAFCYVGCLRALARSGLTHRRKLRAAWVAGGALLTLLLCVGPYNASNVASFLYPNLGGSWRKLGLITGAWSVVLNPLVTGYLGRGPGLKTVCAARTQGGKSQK

Consider `COc1cccc(N2CCC(Cc3ccc(N4N=C(c5ccc(F)cc5)[C@@H](C)[C@@H]4CC(=O)O)cc3)CC2)c1` [Example 101, 2-((4S,5S)-3-(4-fluorophenyl)-1-(4-((1-(3-methoxyphenyl)piperidin-4-yl)methyl)phenyl)-4-methyl-4,5-dihydro-1H-pyrazol-5-yl)acetic acid], for which the results for the EC50 in assay [1] and in assay [2] were 0.04 µM and 0.281 µM, respectively.

`COc1cc(N2CC[C@@H](Oc3ccc(N4N=C(C(F)(F)F)[C@@H](C)[C@@H]4CC(=O)O)cc3)[C@H](CC#N)C2)c(Cl)cn1` [Example B2, 2-((4S,5S)-1-(4-(((3R,4R)-1-(5-chloro-2-methoxypyridin-4-yl)-3-(cyanomethyl)piperidin-4-yl)oxy)phenyl)-4-methyl-3-(trifluoromethyl)-4,5-dihydro-1H-pyrazol-5-yl)acetic acid]: the values for the EC50 in assay [1] and in assay [2] were 0.362 µM and 0.586 µM, respectively.

With `CCOc1ccc(F)c(N2CC[C@@H](Oc3ccc(N4N=C(c5ccc(S(C)(=O)=O)cc5)[C@@H](C)[C@@H]4CC(=O)O)cc3)[C@H](C)C2)c1` [Example 98, 2-((4S,5S)-1-(4-(((3R,4R)-1-(5-ethoxy-2-fluorophenyl)-3-methylpiperidin-4-yl)oxy)phenyl)-4-methyl-3-(4-(methylsulfonyl)phenyl)-4,5-dihydro-1H-pyrazol-5-yl)acetic acid], the EC50 is 0.025 µM in assay [1] and 0.083 µM in assay [2].

Regarding `CCOc1ccc(F)c(N2CCC(Oc3ccc(N4N=C(C(F)(F)F)[C@@H](C)[C@@H]4CC(=O)O)cc3)C(OC)C2)c1` (single isomer, unassigned) [Example 31 (Isomer 1)], the EC50 in assay [1] worked out at 0.013 µM; in assay [2], 0.473 µM.

For the compound `C[C@@H]1C(C(F)(F)F)=NN(c2ccc(OC3CCN(c4cc(O)ccc4F)CC3)cc2)[C@H]1CC(=O)O` [Example 102, 2-((4S,5S)-1-(4-((1-(2-fluoro-5-hydroxyphenyl)piperidin-4-yl)oxy)phenyl)-4-methyl-3-(trifluoromethyl)-4,5-dihydro-1H-pyrazol-5-yl)acetic acid], the EC50 in assay [1] was determined as 0.131 µM.

Turning to `CCOc1ccc(F)c(N2CCC(Oc3ccc(N4N=C(C(F)(F)F)[C@@H](C)[C@@H]4CC(=O)O)cc3)C(Cc3ccccc3)C2)c1` (single isomer, unassigned) [Example 28 (Isomer 2)], the EC50 in assay [1] stood at 0.23 µM; in assay [2], 1.32 µM.

As to `COc1cc(N2CCC(Oc3ccc(N4N=C(C(F)(F)F)[C@@H](C)[C@@H]4CC(=O)O)cn3)C(C)C2)c(Cl)cn1` (single isomer, unassigned) [Example 103 Isomer 2], the EC50 worked out at 0.043 µM in assay [1] and 0.096 µM in assay [2].
